{
  "source": "patent US20130231458A1",
  "about": "“POLYPEPTIDE FOR PREVENTING AND TREATING CELL HYPERPLASIA” (priority 2011, published 2013)",
  "key": {"[1]": {"tested_on": "lung cancer cells", "experiment": "Xenograft model of lung cancer in nude mice, tumor volume", "format": "in vivo, nude mice (NU/NU)", "description": "The polypeptide of the present invention is preventively injected into the rear parts of the necks of four nude mice (nude mice—NU/NU) for a week (5 times per week at a dose of 50 mg/Kg). Next, 1×10^6 lung cancer cells are injected into the hypodermic tissue of the right side of the abdomen of each nude mouse on Day 1. The abovementioned four nude mice function as the medicine test group. Next, the polypeptide is delivered to each nude mouse of the medicine test group at a dose of 50 mg/Kg 5 times per week from Day 1 to Day 43. Meanwhile, the weight and cancer size of each nude mouse of the medicine test group is recorded. […] Normal saline having a pH of 7.2-7.4 is subcutaneously injected into the four nude mice of the negative control group for a week (5 times per week). Next, 1×10^6 lung cancer cells are injected into the hypodermic tissue of the right side of the abdomen of each nude mouse of the negative control group on Day 1. Next, normal saline is delivered to each nude mouse of the negative control group 5 times per week from Day 1 to Day 43. Meanwhile, the weight and cancer size of each nude mouse of the negative control group is recorded. […] 1×10^6 lung cancer cells are injected into the hypodermic tissue of the right side of the abdomen of each nude mouse of the positive control group on Day 1. Next, a small-molecule anti-cancer drug Doxorubicin is intravenously injected into a region near the abdomen of each nude mouse of the positive control group once per week at a dose of 5 mg/Kg from Day 1 to Day 43 (refer to F Pastorino et. al., Clin. Cancer Res. 14(22): 7320-7329, 2008). Meanwhile, the weight and cancer size of each nude mouse of the positive control group is recorded. Different from the abovementioned two groups, medicine is not applied to the positive control group before Day 1. […] The mice of the three groups are dissected for examining and recording the weight of the tumor tissue on Day 43."}, "[2]": {"experiment": "Weights, motility and side effects of nude mice in the xenograft experiment", "format": "in vivo, nude mice (NU/NU)", "description": "The polypeptide of the present invention is preventively injected into the rear parts of the necks of four nude mice (nude mice—NU/NU) for a week (5 times per week at a dose of 50 mg/Kg). Next, 1×10^6 lung cancer cells are injected into the hypodermic tissue of the right side of the abdomen of each nude mouse on Day 1. The abovementioned four nude mice function as the medicine test group. Next, the polypeptide is delivered to each nude mouse of the medicine test group at a dose of 50 mg/Kg 5 times per week from Day 1 to Day 43. Meanwhile, the weight and cancer size of each nude mouse of the medicine test group is recorded. The negative control group also has four nude mice. Normal saline having a pH of 7.2-7.4 is subcutaneously injected into the four nude mice of the negative control group for a week (5 times per week). Next, 1×10^6 lung cancer cells are injected into the hypodermic tissue of the right side of the abdomen of each nude mouse of the negative control group on Day 1. Next, normal saline is delivered to each nude mouse of the negative control group 5 times per week from Day 1 to Day 43. Meanwhile, the weight and cancer size of each nude mouse of the negative control group is recorded. The positive control group also has four nude mice. 1×10^6 lung cancer cells are injected into the hypodermic tissue of the right side of the abdomen of each nude mouse of the positive control group on Day 1. Next, a small-molecule anti-cancer drug Doxorubicin is intravenously injected into a region near the abdomen of each nude mouse of the positive control group once per week at a dose of 5 mg/Kg from Day 1 to Day 43 (refer to F Pastorino et. al., Clin. Cancer Res. 14(22): 7320-7329, 2008). Meanwhile, the weight and cancer size of each nude mouse of the positive control group is recorded. Different from the abovementioned two groups, medicine is not applied to the positive control group before Day 1. The medicine test group, negative control group and positive group are observed until Day 43. The mice of the three groups are dissected for examining and recording the weight of the tumor tissue on Day 43."}, "[3]": {"tested_on": "erythrocytes", "details": "very low concentration (lower than 5 μM); cited from earlier work"}},
  "data": [
    {"smiles": "COc1cccc2c1C(=O)c1c(O)c3c(c(O)c1C2=O)C[C@@](O)(C(=O)CO)C[C@@H]3O[C@H]1C[C@H](N)[C@H](O)[C@H](C)O1", "note": "[Dox, Doxorubicin]", "values": [
      {"measurement": "Tumor Volumes of Nude Mice", "setting": "[1]; D22, polypeptide 50 mg/Kg s.c. 5 times per week (plus one week before D1), Dox 5 mg/Kg i.v. once per week", "value": 57.8, "unit": "mm^3"},
      {"measurement": "Tumor Volumes of Nude Mice", "setting": "[1]; D29, same dosing", "value": 373.8, "unit": "mm^3"},
      {"measurement": "Tumor Volumes of Nude Mice", "setting": "[1]; D33, same dosing", "value": 553.5, "unit": "mm^3"},
      {"measurement": "Tumor Volumes of Nude Mice", "setting": "[1]; D36, same dosing", "value": 632.6, "unit": "mm^3"},
      {"measurement": "Tumor Volumes of Nude Mice", "setting": "[1]; D40, same dosing", "value": 884.5, "unit": "mm^3"},
      {"measurement": "Tumor Volumes of Nude Mice", "setting": "[1]; D43, same dosing", "value": 1308.9, "unit": "mm^3"},
      {"measurement": "ratio of the average tumor volumes of treated group and negative control group (saline)", "setting": "[1]; at best, Day 40", "value": 52.0, "unit": "%"},
      {"measurement": "ratio of the average tumor volumes of treated group and negative control group (saline)", "setting": "[1]; end of the experiment (Day 43)", "value": 83.05, "unit": "%"},
      {"measurement": "Weights of Nude Mice", "setting": "[2]; D1, polypeptide 50 mg/Kg s.c. 5 times per week (plus one week before D1), Dox 5 mg/Kg i.v. once per week", "value": 25.6, "unit": "gram"},
      {"measurement": "Weights of Nude Mice", "setting": "[2]; D5, same dosing", "value": 26.5, "unit": "gram"},
      {"measurement": "Weights of Nude Mice", "setting": "[2]; D8, same dosing", "value": 27.8, "unit": "gram"},
      {"measurement": "Weights of Nude Mice", "setting": "[2]; D12, same dosing", "value": 28.2, "unit": "gram"},
      {"measurement": "Weights of Nude Mice", "setting": "[2]; D15, same dosing", "value": 28.8, "unit": "gram"},
      {"measurement": "Weights of Nude Mice", "setting": "[2]; D19, same dosing", "value": 30.4, "unit": "gram"},
      {"measurement": "Weights of Nude Mice", "setting": "[2]; D22, same dosing", "value": 30.0, "unit": "gram"},
      {"measurement": "Weights of Nude Mice", "setting": "[2]; D26, same dosing", "value": 30.4, "unit": "gram"},
      {"measurement": "Weights of Nude Mice", "setting": "[2]; D29, same dosing", "value": 30.0, "unit": "gram"},
      {"measurement": "Weights of Nude Mice", "setting": "[2]; D33, same dosing", "value": 31.5, "unit": "gram"},
      {"measurement": "Weights of Nude Mice", "setting": "[2]; D36, same dosing", "value": 32.1, "unit": "gram"},
      {"measurement": "Weights of Nude Mice", "setting": "[2]; D40, same dosing", "value": 32.5, "unit": "gram"},
      {"measurement": "Weights of Nude Mice", "setting": "[2]; D43, same dosing", "value": 32.8, "unit": "gram"},
      {"measurement": "weights and motilities during the experiment", "setting": "[2]; Day 1 to Day 43", "value": "do not vary significantly"}
    ]},
    {"smiles": "CC[C@H](C)[C@H](NC(=O)CN)C(=O)NCC(=O)N[C@@H](C)C(=O)N[C@H](C(=O)N[C@@H](CC(C)C)C(=O)N[C@@H](CCCCN)C(=O)N[C@H](C(=O)N[C@@H](CC(C)C)C(=O)N[C@H](C(=O)N[C@H](C(=O)NCC(=O)N[C@@H](CC(C)C)C(=O)N1CCC[C@H]1C(=O)N[C@@H](C)C(=O)N[C@@H](CC(C)C)C(=O)N[C@H](C(=O)N[C@@H](CO)C(=O)N[C@@H](Cc1c[nH]c2ccccc12)C(=O)N[C@H](C(=O)N[C@@H](CCCCN)C(=O)N[C@@H](CCCNC(=N)N)C(=O)N[C@@H](CCCCN)C(=O)N[C@@H](CCCNC(=N)N)C(=O)N[C@@H](CCC(N)=O)C(=O)N[C@@H](CCC(N)=O)C(N)=O)[C@@H](C)CC)[C@@H](C)CC)[C@@H](C)O)[C@@H](C)O)C(C)C)C(C)C", "note": "[melittin]", "values": [
      {"measurement": "erythrocytes damaged", "setting": "[3]", "value": "about 90%"}
    ]}
  ]
}
